Read-outs that look alike come from different tables or passages of the source. Peptide text beside a SMILES is read from it.
What was measured:
c-MycC52 = test: UV titration, c-MycC52; assay type: binding; conditions: for Kd: average of three experiments ± SD, SD; for selectivity for c-MycC52 against the complementary G4 forming sequence: from UV titration Kd values
Protocol: (§1) UV titrations were recorded using an Agilent Cary-60 UV/VIS spectrometer with a 10 mm path length black-walled quartz cuvette. Oligonucleotides (c-MycC27, c-MycC52, c-MycG27, c-MycG52, DAPc, DAPg, and dsDNA; sequences listed in Supplementary Table S1) were annealed as 250 µM stock solutions in 10 mM sodium cacodylate buffer (pH 6.6) in the presence or absence of 100 mM KCl. Spectra were recorded at room temperature over a wavelength range of 300–500 nm with 1 nm intervals. Buffer-only spectra were recorded and subtracted from each dataset as blanks. Peptide ligands were prepared as 1 mM stock solutions in DMSO and added to the cuvette at a final concentration of 10 µM in buffer prior to DNA addition. DNA stock was diluted to 50 µM in buffer and was added stepwise to the peptide solution to reach 2.5 µM final concentration, followed by additions from the 250 µM DNA stock to reach final DNA concentrations of 30 or 50 µM. The absorbance at 350 nm was monitored and plotted against DNA concentration. Binding curves were fitted using a one-site binding model in GraphPad Prism version 10.1.2, and Kd values were determined from normalized data to represent the DNA-ligand bound fraction.
(§2) Despite the demonstrable importance of the extended five-tract C-rich sequence within the c-Myc promoter, most studies looking at ligand binding use the shorter sequences. […] Although the iM-targeting antibody is specific for iM as a structure, it also binds multiple types of iM-structures.

DAPg = test: UV titration, DAPg; assay type: binding; set-up: key to Kd DAPg, 100 mM KCl: Binding classified as non-specific (NS) showed no consistent or concentration-dependent pattern, under the tested conditions; key to Kd DAPg: NS = non-specific binding indicates where no significant pattern of binding was observed at the concentration range of the experiment; conditions: for Kd DAPg: UV titration at 350 nm, 10 µM peptide, 10 mM sodium cacodylate pH 6.6, no KCl; for Kd DAPg, 100 mM KCl: UV titration, 10 mM sodium cacodylate 100 mM potassium chloride pH 6.6, two experiments
Protocol: as §1, §2

[1] = system: c-Myc promoter (Del-4) Firefly luciferase reporter in HEK293 cells; test: Dual-luciferase reporter assay, c-Myc promoter; assay type: cell-based, human; conditions: HEK293, 4 h, 1, 5 or 10 µM peptide with Nanocin Pro; Firefly/Renilla normalised to 0.2% DMSO; P < 0.001
Protocol: Cell studies: HEK293 cells (ATCC CRL-1573™, passages 20–28), MCF-7 cells (ATCC HTB-22™, passages 21–28), and Panc-1 cells (ATCC CRL-1469™, passages 15–22) were cultured in Dulbecco's Modified Eagle's Medium (DMEM) medium supplemented with 10% fetal bovine serum (FBS; Gibco, UK) and maintained under standard cell culture conditions (37°C, 5% CO2). Cells were passaged every 3–4 days at ∼80% confluency. For experiments, the cells were seeded into six-well plates at a density of 1 × 10⁵ cells/well in DMEM containing 10% FBS. […] Cell proliferation was assessed at 4 and 24 h post-treatment using the CellTiter 96® Aqueous One Solution Cell Proliferation Assay (Promega, USA). For this, 20 µl of reagent was added per well, and absorbance at 490 nm was measured after 4 and 24 h using a SpectraMax iD3 plate reader (Molecular Devices, UK). Blank values (media without cells) were subtracted, and readings were normalized to DMSO-treated controls. […] Statistical significance was determined using one-way ANOVA followed by Holm–Šídák post-hoc analysis performed in GraphPad Prism version 10.1.2. […]

[2] = UV titration at 350 nm, 10 µM peptide, 10 mM sodium cacodylate pH 6.6, no KCl, room temperature, read-out: Kd c-MycC52
[3] = read-out: Kd c-MycC52, 100 mM KCl, UV titration, 10 mM sodium cacodylate 100 mM potassium chloride pH 6.6

SMILES | Kd (c-MycC52; [2]) [nM] | selectivity for c-MycC52 against the complementary G4 forming sequence (c-MycC52) | Kd (c-MycC52; [3]) [nM] | Kd DAPg (DAPg) | Kd DAPg, 100 mM KCl (DAPg) | luciferase activity (c-Myc promoter activity) vs vehicle-only control [1]
CC(=O)N1CCC[C@H]1C(=O)N[C@H](C(=O)N[C@@H](CC(N)=O)C(=O)N[C@H](C(=O)N[C@@H](CO)C(=O)NCC(=O)N[C@@H](CCCNC(=N)N)C(=O)N[C@@H](CC(N)=O)C(=O)N[C@@H](Cc1ccc(O)cc1)C(=O)N[C@@H](CC(C)C)C(=O)N[C@@H](Cc1ccccc1)C(=O)N[C@@H](CS)C(N)=O)C(C)C)[C@@H](C)O [Pep-PTN] (Ac-PTNVSGRNYLFC-NH2) | 930 ± 80 | about 50 fold | 1540 ± 30 | NS | NS | concentration-dependent decreases in luciferase activity
CC(=O)N[C@H](C(=O)N[C@@H](CO)C(=O)N[C@@H](CCC(=O)O)C(=O)N[C@@H](C)C(=O)N[C@@H](Cc1c[nH]c2ccccc12)C(=O)N[C@@H](CCCCN)C(=O)N[C@@H](CCC(=O)O)C(=O)N[C@H](C(=O)N[C@@H](CCCCN)C(=O)NCC(=O)N[C@@H](Cc1ccccc1)C(=O)N[C@@H](Cc1ccccc1)C(N)=O)C(C)C)C(C)C [Pep-VSE] (Ac-VSEAWKEVKGFF-NH2) | 430 ± 30 | ~100 fold | 690 ± 60 | NS | NS | concentration-dependent decreases in luciferase activity
